The results in this text go back to PubChem BioAssay (NCI).

What all share (experiment): NCI tumour cell line growth inhibition, 48 h
The subject of assay [1] is BT-549 breast.
Assay [2] has as its system HCT-116 colon.
The test system of assay [3] is HOP-62 NSCLC.
In assay [4] the test system is HS 578T breast.
Assay [5] has as its system MDA-MB-231 breast.
The subject of assay [6] is NCI-H23 lung.
The test system of assay [7] is NCI-H460 lung.
Assay [8] has as its system SF-539 CNS.
Assay [9] concerns SNB-75 CNS.
The subject of assay [10] is SK-OV-3 ovarian.

Where “and” joins values, the source holds several entries; their conditions need not be identical. Equal values may be shown once.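 The compound was tested at five concentrations on cells cultured in 96-well plates, with a 48-hour exposure period. GI50: concentration for 50% inhibition of growth. TGI is the concentration that stops growth completely.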

On to `COc1cc(CNNC(N)=S)cc(OC)c1OC`, for which the TGI in [1], in assay [2], in assay [3], in assay [4], in assay [5] and in assay [6] was > 100 µM in each case. Besides, the TGI in [7], in assay [8] and in assay [9] was > 100 µM throughout.
Take `COCN1C(=O)[C@@H]2CCCN2C(=O)c2cc(N)ccc21`: the TGI in assay [1], in assay [2], in assay [3], in [4], in assay [5] and in assay [6] was > 100 µM throughout. The TGI in [8], in assay [10] and in [9] was > 100 µM in each case.
Regarding `O=C1C(c2c(O)[nH]c3ccc(Br)cc23)=Nc2ccccc21`, the TGI worked out at 41 µM in [1]; 6.47 µM in assay [2]; 32.6 µM in assay [3]; 54.6 µM in assay [4]; 37.2 µM in assay [5]; 40.1 µM in [6]. Moreover, the TGI in [7] came to 44.6 µM; in assay [10] it was 40.9 µM; in [9], 28.4 µM.
For the molecule `COC(=O)C(CCSC)NC(=O)Cc1ccc(C(=O)c2ccccc2)cc1` (stereo not drawn), the TGI in assay [1], in [2], in assay [3], in [4], in assay [5] and in assay [6] was > 100 µM throughout. The TGI in assay [7], in assay [10] and in [9] was > 100 µM throughout.
On to `COC(=O)C1OC(O[C@H]2CC[C@]3(C)[C@H]4CC=C5[C@@H]6CC(C)(C)CC[C@]6(C(=O)OC6OCC(O)C(O)C6OC6OC(C)C(OC7OCC(O)C(O)C7O)C(O)C6O)CC[C@@]5(C)[C@]4(C)CC[C@H]3C2(C)C)C(O)C(O)C1O` (stereo partly drawn), for which the TGI in assay [1] is 34.1 µM and 33.2 µM; in assay [2], 33.1 µM and 37.5 µM; in assay [3] it was 33.2 µM and 32.6 µM; in assay [4] it was 39.4 µM and 35.9 µM; in [5], 20.1 µM and 12.6 µM; in assay [6], 29.1 µM and 30 µM. In addition, the TGI was > 100 µM and 43.8 µM in assay [7]; 35.9 µM and 36.7 µM in [10]; 30 µM and 30.4 µM in assay [9]. The GI50 in assay [5] was 7.51 µM and 2.75 µM.
For the molecule `N#C/C(N)=C(\C#N)NC(=O)C(=O)N/C(C#N)=C(\N)C#N`, the TGI in assay [1], in assay [2], in assay [3], in assay [4], in assay [5] and in assay [6] was > 100 µM throughout. The TGI in [7], in [8] and in assay [9] was > 100 µM throughout.
For the molecule `CC(=O)c1cc2ccccc2oc1=O`, the TGI in assay [1], in assay [2], in [3], in assay [4], in assay [5] and in assay [6] was > 100 µM each time. Also, the TGI in assay [7], in assay [8] and in assay [9] was > 100 µM each time.
In the case of `CN(C)c1nc(Cl)c2c(-c3ccccc3)c(-c3ccccc3)oc2n1`, the TGI is 97.7 µM in [1]; > 100 µM in [2]; > 100 µM in assay [4]; > 100 µM in assay [5]; > 100 µM in assay [6]; > 100 µM in [8]. Further, the TGI in [10] and in [9] was > 100 µM each time.
`O=C(Nc1nc(C23CC4CC(CC(C4)C2)C3)cs1)c1cc2ccccc2oc1=O`: the TGI in assay [1], in assay [2], in [3], in assay [4], in assay [5] and in [6] was > 100 µM throughout. In addition, the TGI in assay [7], in assay [8] and in assay [9] was > 100 µM in each case.
Regarding `COc1ccccc1C(=O)c1c(NCc2ccccc2)c(=O)c1=O`, the TGI in assay [1], in assay [2], in [3], in [4], in [5] and in assay [6] was > 100 µM each time. The TGI in assay [7], in [10] and in assay [9] was > 100 µM each time.
On to `COc1cc(Cc2nccc3cc(OC)c(OC)cc23)c(N=NN(C)C)cc1OC`, for which the TGI in assay [1] is 44 µM; in assay [2], 17.7 µM; in assay [3], > 100 µM; in [4], 86.5 µM; in assay [5] it was 36.6 µM; in [6], 48.7 µM. Besides, the TGI in assay [7] was 22.3 µM; in assay [10], 49.2 µM; in assay [9], > 100 µM.
Regarding `Cc1nc2c(=O)n(C)ncc2[nH]1`, the TGI in [1], in [2], in [3], in assay [4], in assay [5] and in [6] was > 100 µM in each case. In addition, the TGI in [7], in [8] and in assay [9] was > 100 µM each time.
